Literature values as cited in patent US20200215051A1, “NEBULIZATION COMPOSITION COMPRISING TIOTROPIUM AND INDACATEROL” (GLENMARK SPECIALTY S.A., priority 2019, published 2020).

Details: water

Question: Which aqueous solubility does the source give for `CCc1cc2c(cc1CC)CC(NC[C@H](O)c1ccc(O)c3[nH]c(=O)ccc13)C2` [Indacaterol, 5-[(1R)-2-[(5,6-diethyl-2,3-dihydro-1H-inden-2-yl)amino]-1-hydroxyethyl]-8-hydroxy-1H-quinolin-2-one] here?
Answer: The aqueous solubility was “very slightly soluble in water”.
